Values of other authors in US7009061B2, “Diterpene compounds” (Nihon University, priority 2003, dated 2006).

Test system: P-388 cells

Molecule | depressive activities against P-388 cells in vivo
CCCCCCCCCCCCCCCC(=O)OCC1=C[C@@H]2C(=O)[C@]3(C=C(C)[C@H](OC(=O)C(C)C(C)C)[C@@]3(O)[C@@H]1O)[C@H](C)C[C@]1(OC(=O)CCCCCCCCCCC)[C@H]2C1(C)C (some centres unmarked) [kansuiphorin A] | depressive activities
kanusiphorin B | depressive activities
